{"source": "BigSolDB 2.1", "data": [{"smiles": "OCc1cn(Cc2ccccc2)nn1", "values": [{"measurement": "solubility (mole fraction)", "setting": "in ethanol, 292.15 K", "value": 0.0566}, {"measurement": "solubility (mole fraction)", "setting": "in ethanol, 295.15 K", "value": 0.0681}, {"measurement": "solubility (mole fraction)", "setting": "in ethanol, 298.15 K", "value": 0.0833}, {"measurement": "solubility (mole fraction)", "setting": "in ethanol, 301.15 K", "value": 0.103}, {"measurement": "solubility (mole fraction)", "setting": "in ethanol, 304.15 K", "value": 0.129}, {"measurement": "solubility (mole fraction)", "setting": "in ethanol, 307.15 K", "value": 0.158}, {"measurement": "solubility (mole fraction)", "setting": "in ethanol, 310.15 K", "value": 0.198}, {"measurement": "solubility (mole fraction)", "setting": "in isopropanol, 292.15 K", "value": 0.0322}, {"measurement": "solubility (mole fraction)", "setting": "in isopropanol, 295.15 K", "value": 0.039}, {"measurement": "solubility (mole fraction)", "setting": "in isopropanol, 298.15 K", "value": 0.047}, {"measurement": "solubility (mole fraction)", "setting": "in isopropanol, 301.15 K", "value": 0.0576}, {"measurement": "solubility (mole fraction)", "setting": "in isopropanol, 304.15 K", "value": 0.0707}, {"measurement": "solubility (mole fraction)", "setting": "in isopropanol, 307.15 K", "value": 0.0889}, {"measurement": "solubility (mole fraction)", "setting": "in isopropanol, 310.15 K", "value": 0.112}, {"measurement": "solubility (mole fraction)", "setting": "in methanol, 292.15 K", "value": 0.122}, {"measurement": "solubility (mole fraction)", "setting": "in methanol, 295.15 K", "value": 0.146}, {"measurement": "solubility (mole fraction)", "setting": "in methanol, 298.15 K", "value": 0.172}, {"measurement": "solubility (mole fraction)", "setting": "in methanol, 301.15 K", "value": 0.2}, {"measurement": "solubility (mole fraction)", "setting": "in methanol, 304.15 K", "value": 0.222}, {"measurement": "solubility (mole fraction)", "setting": "in methanol, 307.15 K", "value": 0.262}, {"measurement": "solubility (mole fraction)", "setting": "in methanol, 310.15 K", "value": 0.3}, {"measurement": "solubility (mole fraction)", "setting": "in n-butanol, 292.15 K", "value": 0.0342}, {"measurement": "solubility (mole fraction)", "setting": "in n-butanol, 295.15 K", "value": 0.0408}, {"measurement": "solubility (mole fraction)", "setting": "in n-butanol, 298.15 K", "value": 0.0481}, {"measurement": "solubility (mole fraction)", "setting": "in n-butanol, 301.15 K", "value": 0.0579}, {"measurement": "solubility (mole fraction)", "setting": "in n-butanol, 304.15 K", "value": 0.0695}, {"measurement": "solubility (mole fraction)", "setting": "in n-butanol, 307.15 K", "value": 0.0832}, {"measurement": "solubility (mole fraction)", "setting": "in n-butanol, 310.15 K", "value": 0.1}, {"measurement": "solubility (mole fraction)", "setting": "in n-propanol, 292.15 K", "value": 0.0422}, {"measurement": "solubility (mole fraction)", "setting": "in n-propanol, 295.15 K", "value": 0.0502}, {"measurement": "solubility (mole fraction)", "setting": "in n-propanol, 298.15 K", "value": 0.0607}, {"measurement": "solubility (mole fraction)", "setting": "in n-propanol, 301.15 K", "value": 0.0742}, {"measurement": "solubility (mole fraction)", "setting": "in n-propanol, 304.15 K", "value": 0.0909}, {"measurement": "solubility (mole fraction)", "setting": "in n-propanol, 307.15 K", "value": 0.113}, {"measurement": "solubility (mole fraction)", "setting": "in n-propanol, 310.15 K", "value": 0.141}, {"measurement": "solubility (mole fraction)", "setting": "in water, 292.15 K", "value": 0.00147}, {"measurement": "solubility (mole fraction)", "setting": "in water, 295.15 K", "value": 0.0017}, {"measurement": "solubility (mole fraction)", "setting": "in water, 298.15 K", "value": 0.00197}, {"measurement": "solubility (mole fraction)", "setting": "in water, 301.15 K", "value": 0.00237}, {"measurement": "solubility (mole fraction)", "setting": "in water, 304.15 K", "value": 0.0029}, {"measurement": "solubility (mole fraction)", "setting": "in water, 307.15 K", "value": 0.00356}, {"measurement": "solubility (mole fraction)", "setting": "in water, 310.15 K", "value": 0.00433}]}]}
